Reference: the OligoGym collection
HELM strings list units from the 5' end as sugar, base in round brackets, then linkage (d deoxyribose, r ribose, m 2'-O-methyl, p phosphodiester). Strings are as the collection lists them; they lack the last nucleoside at the 3' end of the tested compound. [moe] = 2'-O-(2-methoxyethyl) (MOE); [sp] = phosphorothioate linkage; [m5C] = 5-methylcytosine

Biological target: LRRK2
Assay: mouse, dose not given
Conditions: ASO

| Substance | 3 h FOB score |
| --- | --- |
| RNA1{[moe](A)[sp].[moe]([m5C])p.[moe](G)[sp].[moe]([m5C])[sp].[moe](A)[sp].d([m5C])[sp].d(T)[sp].d(T)[sp].d(A)[sp].d(A)[sp].d([m5C])[sp].d(A)[sp].d(A)[sp].d(T)[sp].d(A)[sp].[moe](T)[sp].[moe]([m5C])p.[moe](A)[sp].[moe](T)}$$$$ (last 3' nucleoside missing) | 1 score 0-7 |
| RNA1{[moe](A)[sp].[moe]([m5C])p.[moe](G)p.[moe]([m5C])p.[moe](A)[sp].d([m5C])[sp].d(T)[sp].d(T)[sp].d(A)[sp].d(A)[sp].d([m5C])[sp].d(A)[sp].d(A)[sp].d(T)[sp].d(A)[sp].[moe](T)p.[moe]([m5C])p.[moe](A)[sp].[moe](T)}$$$$ (last 3' nucleoside missing) | 0 score 0-7 |
| RNA1{[moe](A)[sp].[moe]([m5C])p.[moe]([m5C])p.[moe]([m5C])p.[moe](T)[sp].d(T)[sp].d(T)[sp].d([m5C])[sp].d([m5C])[sp].d(A)[sp].d(T)[sp].d(G)[sp].d(T)[sp].d(G)[sp].d(A)[sp].[moe](A)p.[moe]([m5C])p.[moe](A)[sp].[moe](T)}$$$$ (last 3' nucleoside missing) | 4 score 0-7 |
| RNA1{[moe](G)[sp].[moe](A)p.[moe](A)[sp].[moe](A)[sp].[moe](T)[sp].d(G)[sp].d(A)[sp].d(G)[sp].d(T)[sp].d(G)[sp].d([m5C])[sp].d(A)[sp].d(T)[sp].d(G)[sp].d(G)[sp].[moe]([m5C])[sp].[moe](A)p.[moe](T)[sp].[moe]([m5C])}$$$$ (last 3' nucleoside missing) | 7 score 0-7 |
| RNA1{[moe](G)[sp].[moe](A)p.[moe](A)[sp].[moe]([m5C])[sp].[moe](T)[sp].d(T)[sp].d(T)[sp].d(A)[sp].d(T)[sp].d(A)[sp].d(T)[sp].d(A)[sp].d(T)[sp].d(A)[sp].d(G)[sp].[moe](T)[sp].[moe](T)p.[moe](A)[sp].[moe](T)}$$$$ (last 3' nucleoside missing) | 2 score 0-7 |
| RNA1{[moe](G)[sp].[moe](A)p.[moe](G)[sp].[moe](T)[sp].[moe](G)[sp].d([m5C])[sp].d(A)[sp].d(T)[sp].d(G)[sp].d(G)[sp].d([m5C])[sp].d(A)[sp].d(T)[sp].d([m5C])[sp].d(A)[sp].[moe](A)[sp].[moe](A)p.[moe](A)[sp].[moe](A)}$$$$ (last 3' nucleoside missing) | 2 score 0-7 |
| RNA1{[moe](G)[sp].[moe](G)p.[moe](A)p.[moe](G)p.[moe](A)[sp].d(T)[sp].d(T)[sp].d(A)[sp].d(T)[sp].d(T)[sp].d(T)[sp].d(A)[sp].d(G)[sp].d(T)[sp].d(G)[sp].[moe]([m5C])p.[moe]([m5C])p.[moe]([m5C])[sp].[moe](A)}$$$$ (last 3' nucleoside missing) | 6 score 0-7 |
| RNA1{[moe](G)[sp].[moe](G)p.[moe](A)p.[moe]([m5C])p.[moe](T)[sp].d(T)[sp].d([m5C])[sp].d([m5C])[sp].d(A)[sp].d([m5C])[sp].d(A)[sp].d(T)[sp].d(T)[sp].d(A)[sp].d(T)[sp].[moe](T)p.[moe](G)p.[moe]([m5C])[sp].[moe](A)}$$$$ (last 3' nucleoside missing) | 0 score 0-7 |
| RNA1{[moe](G)[sp].[moe](T)p.[moe](A)p.[moe]([m5C])p.[moe]([m5C])[sp].d([m5C])[sp].d(T)[sp].d(T)[sp].d(T)[sp].d([m5C])[sp].d([m5C])[sp].d(A)[sp].d(T)[sp].d(G)[sp].d(T)[sp].[moe](G)p.[moe](A)p.[moe](A)[sp].[moe]([m5C])}$$$$ (last 3' nucleoside missing) | 1 score 0-7 |
| RNA1{[moe](G)[sp].[moe](T)p.[moe](G)[sp].[moe]([m5C])[sp].[moe](A)[sp].d(A)[sp].d(G)[sp].d(T)[sp].d([m5C])[sp].d([m5C])[sp].d(A)[sp].d(A)[sp].d(A)[sp].d(T)[sp].d(G)[sp].[moe](T)[sp].[moe](G)p.[moe](T)[sp].[moe]([m5C])}$$$$ (last 3' nucleoside missing) | 4 score 0-7 |
| RNA1{[moe](G)[sp].[moe](T)p.[moe](G)p.[moe](A)p.[moe](A)[sp].d(G)[sp].d([m5C])[sp].d(A)[sp].d([m5C])[sp].d(T)[sp].d(G)[sp].d(A)[sp].d(A)[sp].d(T)[sp].d([m5C])[sp].[moe]([m5C])p.[moe](A)p.[moe](T)[sp].[moe](A)}$$$$ (last 3' nucleoside missing) | 6 score 0-7 |
| RNA1{[moe](G)[sp].[moe](T)p.[moe](G)p.[moe]([m5C])p.[moe](A)[sp].d(A)[sp].d(G)[sp].d(T)[sp].d([m5C])[sp].d([m5C])[sp].d(A)[sp].d(A)[sp].d(A)[sp].d(T)[sp].d(G)[sp].[moe](T)p.[moe](G)p.[moe](T)[sp].[moe]([m5C])}$$$$ (last 3' nucleoside missing) | 2 score 0-7 |
| RNA1{[moe](G)[sp].[moe](T)p.[moe](T)[sp].[moe](A)[sp].[moe](A)[sp].d([m5C])[sp].d(G)[sp].d([m5C])[sp].d(A)[sp].d([m5C])[sp].d(T)[sp].d(T)[sp].d(A)[sp].d(A)[sp].d([m5C])[sp].[moe](A)[sp].[moe](A)p.[moe](T)[sp].[moe](A)}$$$$ (last 3' nucleoside missing) | 2 score 0-7 |
| RNA1{[moe](G)[sp].[moe](T)p.[moe](T)[sp].[moe](T)[sp].[moe]([m5C])[sp].d(A)[sp].d(T)[sp].d(T)[sp].d([m5C])[sp].d(G)[sp].d(G)[sp].d(T)[sp].d(T)[sp].d(A)[sp].d(T)[sp].[moe](A)[sp].[moe](A)p.[moe](G)[sp].[moe](G)}$$$$ (last 3' nucleoside missing) | 7 score 0-7 |
| RNA1{[moe](G)[sp].[moe](T)p.[moe](T)p.[moe](T)p.[moe]([m5C])[sp].d(A)[sp].d(T)[sp].d(T)[sp].d([m5C])[sp].d(G)[sp].d(G)[sp].d(T)[sp].d(T)[sp].d(A)[sp].d(T)[sp].[moe](A)p.[moe](A)p.[moe](G)[sp].[moe](G)}$$$$ (last 3' nucleoside missing) | 7 score 0-7 |
| RNA1{[moe](G)[sp].[moe](T)p.[moe]([m5C])p.[moe](A)p.[moe](A)[sp].d(A)[sp].d([m5C])[sp].d(T)[sp].d([m5C])[sp].d(T)[sp].d(T)[sp].d([m5C])[sp].d(A)[sp].d(G)[sp].d(A)[sp].[moe](G)p.[moe](T)p.[moe](T)[sp].[moe](T)}$$$$ (last 3' nucleoside missing) | 0 score 0-7 |
| RNA1{[moe](G)[sp].[moe](T)p.[moe]([m5C])p.[moe](A)p.[moe]([m5C])[sp].d([m5C])[sp].d(T)[sp].d(T)[sp].d(T)[sp].d([m5C])[sp].d([m5C])[sp].d([m5C])[sp].d(A)[sp].d(A)[sp].d(T)[sp].[moe](G)p.[moe]([m5C])p.[moe](T)[sp].[moe](T)}$$$$ (last 3' nucleoside missing) | 0 score 0-7 |
| RNA1{[moe](G)[sp].[moe]([m5C])p.[moe](A)[sp].[moe](A)[sp].[moe](G)[sp].d(T)[sp].d([m5C])[sp].d([m5C])[sp].d(A)[sp].d(A)[sp].d(A)[sp].d(T)[sp].d(G)[sp].d(T)[sp].d(G)[sp].[moe](T)[sp].[moe]([m5C])p.[moe](A)[sp].[moe](A)}$$$$ (last 3' nucleoside missing) | 6 score 0-7 |
| RNA1{[moe](G)[sp].[moe]([m5C])p.[moe](A)p.[moe]([m5C])p.[moe](A)[sp].d([m5C])[sp].d(A)[sp].d(G)[sp].d(T)[sp].d(G)[sp].d(T)[sp].d(A)[sp].d(G)[sp].d(T)[sp].d([m5C])[sp].[moe](A)p.[moe](T)p.[moe](A)[sp].[moe]([m5C])}$$$$ (last 3' nucleoside missing) | 2 score 0-7 |
| RNA1{[moe](G)[sp].[moe]([m5C])p.[moe](T)p.[moe](G)p.[moe](T)[sp].d(A)[sp].d(A)[sp].d(T)[sp].d(A)[sp].d([m5C])[sp].d(G)[sp].d(G)[sp].d([m5C])[sp].d(A)[sp].d(T)[sp].[moe]([m5C])p.[moe](T)p.[moe]([m5C])[sp].[moe](G)}$$$$ (last 3' nucleoside missing) | 6 score 0-7 |
| RNA1{[moe](G)[sp].[moe]([m5C])p.[moe](T)p.[moe](G)p.[moe]([m5C])[sp].d(T)[sp].d([m5C])[sp].d(A)[sp].d(T)[sp].d(A)[sp].d(T)[sp].d([m5C])[sp].d(T)[sp].d(A)[sp].d(A)[sp].[moe](A)p.[moe](G)p.[moe](A)[sp].[moe]([m5C])}$$$$ (last 3' nucleoside missing) | 0 score 0-7 |
| RNA1{[moe](G)[sp].[moe]([m5C])p.[moe](T)p.[moe](T)p.[moe](T)[sp].d([m5C])[sp].d(A)[sp].d(T)[sp].d(A)[sp].d(G)[sp].d([m5C])[sp].d(T)[sp].d(T)[sp].d([m5C])[sp].d([m5C])[sp].[moe](A)p.[moe]([m5C])p.[moe]([m5C])[sp].[moe](A)}$$$$ (last 3' nucleoside missing) | 0 score 0-7 |
| RNA1{[moe](G)[sp].[moe]([m5C])p.[moe]([m5C])[sp].[moe](A)[sp].[moe]([m5C])[sp].d(T)[sp].d(T)[sp].d(T)[sp].d([m5C])[sp].d(A)[sp].d(G)[sp].d([m5C])[sp].d([m5C])[sp].d(A)[sp].d([m5C])[sp].[moe](T)[sp].[moe](T)p.[moe]([m5C])[sp].[moe](A)}$$$$ (last 3' nucleoside missing) | 7 score 0-7 |
| RNA1{[moe](G)[sp].[moe]([m5C])p.[moe]([m5C])[sp].[moe](A)[sp].[moe]([m5C])[sp].d(T)[sp].d([m5C])[sp].d(A)[sp].d(T)[sp].d(G)[sp].d(A)[sp].d(G)[sp].d(G)[sp].d(A)[sp].d([m5C])[sp].[moe](T)[sp].[moe](T)p.[moe]([m5C])[sp].[moe]([m5C])}$$$$ (last 3' nucleoside missing) | 6 score 0-7 |
| RNA1{[moe](G)[sp].[moe]([m5C])p.[moe]([m5C])p.[moe]([m5C])p.[moe](A)[sp].d(G)[sp].d([m5C])[sp].d([m5C])[sp].d(A)[sp].d(A)[sp].d(A)[sp].d(T)[sp].d(G)[sp].d([m5C])[sp].d(T)[sp].[moe](T)p.[moe](G)p.[moe]([m5C])[sp].[moe](A)}$$$$ (last 3' nucleoside missing) | 0 score 0-7 |
